Assay [1] deals with ARH-77 (myeloma) cells. In words: MTT assay, ARH-77 (myeloma) cells. Format: cell-based. The settings on record: ARH-77 cells; for IC50: Homo sapiens, 72 h incubation. The protocol:
(§1) ARH-77 (myeloma) and HT-29 (colon cancer) cells were grown and counted, and were thereafter plated in 96-wells plates to get 0.1×10^6 cells/well. The plates were left in the incubator overnight for cells attachment and the tested compounds were then added to the cells. The tested concentrations of the compounds were 1, 2, 5, 10, 20, 50 and 100 μM. The compounds were incubated with the cells for 24 hours, 48 hours or for 72 hours, and were thereafter subjected to the MTT assay.
Background: Formazan colour is commonly taken as a measure of viable cells.

In assay [2] the test system is HT-29 (colon cancer) cells. Briefly: MTT assay, HT-29 (colon cancer) cells. The settings on record: Homo sapiens, HT-29 cells, 72 h incubation. Format: cell-based. The protocol: as §1

A value given as a limit tells only on which side of the number the result lay.

A word on the IC50: it is the midpoint of a concentration-inhibition curve. A lower IC50 goes with higher potency. In the case of `CCC/C(=C\B1OC(C)(C)C(C)(C)O1)C(O)(c1ccccc1)C1CC1` (centres unmarked) [Compound E2], the IC50 in assay [1] was 54 µM; in assay [2], 85 µM.

Consider `CCC/C(=C\B1OC(C)(C)C(C)(C)O1)C1(O)CCCc2ccccc21` (centres unmarked) [Compound E3], for which the IC50 was found to be 65 µM in assay [1] and 85 µM in assay [2].

For `CCC/C(=C\B1OC(C)(C)C(C)(C)O1)C(O)c1ccccc1` (centres unmarked) [Compound E4], the “IC50, ARH-77, 72 h incubation” value in assay [1] is listed as “not active”. Also, the half-maximal inhibitory concentration (IC50) in assay [2] was above 100 µM.

In the case of `CCCCCCC(C)(O)/C(=C/B1OC(C)(C)C(C)(C)O1)CCC` (centres unmarked) [Compound E5], the figures for the IC50 in assay [1] and in assay [2] were 30 µM and 55 µM, respectively.

Take `CCCCC(C)(O)/C(=C/B1OC(C)(C)C(C)(C)O1)CCC` (centres unmarked) [Compound E6]: the IC50 in assay [1] turned out to be 54 µM; in assay [2] it was 80 µM.

Consider `CCCCCCCC/C(=C\B1OC(C)(C)C(C)(C)O1)C(O)(c1ccccc1)C1CC1` (centres unmarked) [Compound E7], for which the figures for the IC50 in assay [1] and in assay [2] were 6 µM and 15 µM, respectively.

As for `CCCCCCCC/C(=C\B1OC(C)(C)C(C)(C)O1)C(C)(O)CCCCCC` (centres unmarked) [Compound E8], the IC50 in assay [1] is 78 µM; in assay [2], above 100 µM.

The record behind these values is patent publication US20130079305A1, “3-SUBSTITUTED VINYLBORONATES AND USES THEREOF” (Yissum Research Development Company of the Hebrew …, priority 2010, published 2013).
